Literature values as cited in patent US20230293541A1, “METHODS OF TREATING OPHTHALMIC CONDITIONS WITH ENHANCED PENETRATION COMPOSITIONS OF BIMATOPROST AND TIMOLOL” (Somerset Therapeutics, LLC, priority 2022, published 2023).

Experiments:
[1] = in comparison to latanoprost and travoprost
[2] = under certain conditions
[3] = three-month comparison, glaucoma and ocular hypertension
[4] = patients starting on prostaglandin monotherapy

corneal penetration [1]	API stability [2]	SMILES	mean pressures (IOP) versus latanoprost [3]	rate of adjunctive medication use [4]
poor corneal penetration	remain stable	CCNC(=O)CCC/C=C\C[C@@H]1[C@@H](/C=C/[C@@H](O)CCc2ccccc2)[C@H](O)C[C@@H]1O [bimatoprost, (Z)-7-[(1R, 2R, 3R, 5S)-3,5-Dihydroxy-2-[(1E, 3S)˜3-hydroxy-5-phenyl˜1-pentenyl]cyclopentyl]˜5-N-ethylheptenamid]	lower mean pressures than latanoprost at every time point studied	23.2%
–	experiencing degradation	CC(C)OC(=O)CCC/C=C\C[C@@H]1[C@@H](CC[C@@H](O)CCc2ccccc2)[C@H](O)C[C@@H]1O [latanoprost]	–	30.2%
–	experiencing degradation	CC(C)OC(=O)CCC/C=C\C[C@@H]1[C@@H](/C=C/[C@@H](O)COc2cccc(C(F)(F)F)c2)[C@H](O)C[C@@H]1O [travoprost]	–	22.5%
